Five molecules from ChEMBL document CHEMBL1817565, “Synthesis and antimalarial evaluation of novel benzopyrano[4,3-b]benzopyran derivatives” (Bioorg Med Chem, 2011) can be followed below.

One data set has as its system Plasmodium falciparum. The data set is described as follows: Antimalarial activity against chloroquine-sensitive Plasmodium falciparum 3D7 infected in erythrocytes assessed as [3H] incorporation after 48 hrs by scintillation counter. It counts as functional, organism-based.
Data set [1] in a line: Selectivity ratio of cytotoxicity against human NFF cells to IC50 for Plasmodium falciparum 3D7. It counts as cell-based.
A short description of data set [2]: Cytotoxicity against human NFF cells at 50 uM after 3 days by sulforhodamine B assay. Format: cell-based. The settings on record: read-out: INH. (In general: The SRB assay estimates cell density from bound dye.)

As to `COc1cc(OC)c2c(c1OC)O[C@H]1c3c(OC)cc(OC)c(OC)c3O[C@H](c3ccc(Br)cc3)[C@H]1[C@@H]2/C=C/c1ccc(Br)cc1`, in the data set with Plasmodium falciparum, the half-maximal inhibitory concentration (IC50) came out at 2.9 µM. Besides, the selectivity ratio in data set [1] turned out to be 10. Further, the cytotoxicity at 72 h, 50 µM in data set [2] is 46.3%.

For the molecule `COc1cc(OC)c2c(c1OC)O[C@H]1c3c(OC)cc(OC)c(OC)c3O[C@H](c3ccc(Cl)cc3)[C@H]1[C@@H]2/C=C/c1ccc(Cl)cc1`, the IC50 in the data set on Plasmodium falciparum is 3.3 µM. The cytotoxicity at 72 h, 50 µM in data set [2] was found to be 98.4%.

On to `COc1ccc(/C=C/[C@@H]2c3c(OC)cc(OC)c(OC)c3O[C@H]3c4c(OC)cc(OC)c(OC)c4O[C@H](c4ccc(OC)cc4)[C@@H]23)cc1`, for which the IC50 in the data set on Plasmodium falciparum stood at 3.2 µM. Moreover, in data set [1], the selectivity ratio was 10. The cytotoxicity at 72 h, 50 µM in data set [2] came out at 43.2%.

For `COc1cc(OC)c2c(c1OC)O[C@H]1c3c(OC)cc(OC)c(OC)c3O[C@H](c3ccc(C)cc3)[C@H]1[C@@H]2/C=C/c1ccc(C)cc1`, in the data set with Plasmodium falciparum, the IC50 was found to be 1.9 µM. Further, the selectivity ratio in data set [1] was 10. Besides, the cytotoxicity at 72 h, 50 µM in data set [2] worked out at 47.2%.

`COc1cc(OC)c2c(c1OC)O[C@H]1c3c(OC)cc(OC)c(OC)c3O[C@H](c3ccccc3)[C@H]1[C@@H]2/C=C/c1ccccc1` [DEPENDENSIN]: the IC50 in the data set with Plasmodium falciparum is 3.9 µM. Besides, the selectivity ratio in data set [1] amounted to 10. Besides, in data set [2], the cytotoxicity at 72 h, 50 µM stood at 46.9%.

For orientation: IC50 means the midpoint of a concentration-inhibition curve.
